Measured values reported in patent US9233948B2, “Pharmaceutical compositions comprising N-(4-(2-amino-3-chloropyridin-4-yloxy)-3-fluorophenyl)-4-ethoxy-1-(4-fluorophenyl)-2-oxo-1,2-dihydropyridine-3-carboxamide” (Bristol-Myers Squibb Company, priority 2010, dated 2016).
In brackets after ≈: the same amount, converted by molar mass. Where two headings read alike, the source gives them in different places. One block for each molecule: values may come before it.

Columns and labels:
[1] = Aqueous solubility of crystalline forms of Compound (I); format: physicochemical
Excerpt: However, in the presence of an aqueous medium, the neat crystalline Form N-1 can convert to the crystalline sesquihydrate Form H1.5-2. […] One method to increase the bioavailability of compounds in a suspension is to increase the surface area of the particles in contact with the aqueous medium, which can be achieved by decreasing the particle size. However, reductions in particle size below diameters of approximately one micron requires specialized milling and dispersion techniques to prepare, stabilize, and sterilize the sub-micron suspensions. Desired is an aqueous suspension of Compound (I) in Form N-1 that has sufficient resistance to conversion to the sesquihydrate Form H1.5-2 to allow oral administration.

[2] = Chemical stability of tablets after accelerated storage; format: physicochemical; details: control
Procedure: The chemical stability of the 25 mg tablet of Example 9 was evaluated after accelerated storage at various temperatures and humidity conditions for periods up to one month.

[3] = Chemical and physical stability testing of Form N-1; format: physicochemical; details: several different temperature and humidity conditions
[4] = Pharmacokinetics of capsules of Form N-1 with two particle sizes; design: species or system dogs; details: dog, in vivo, 10 mg/kg, 10 mpk; for bioavailability: oral, compared to IV data, read-out: Absolute Bioavailability; for AUC / Cmax / Tmax: po
Procedure: The microsuspension of Example 7, tablets, and hard gelatin capsules containing the phosphate salt of Compound (I) were dosed orally at 10 mg/kg in dogs pretreated with pentagastrin. The resulting exposures were compared to an absolute bioavailability calculated by comparison to an IV dose in the same animals. Capsules were prepared comprising Compound (I), Form N-1 with two different particle sizes.

[5] = Particle Diameter D90 10 micron
[6] = Particle Diameter D90 70 micron

SMILES: CCOc1ccn(-c2ccc(F)cc2)c(=O)c1C(=O)Nc1ccc(Oc2ccnc(N)c2Cl)c(F)c1 [Form H1.5-2, N-(4-(2-Amino-3-chloropyridin-4-yloxy)-3-fluorophenyl)-4-ethoxy-1-(4-fluorophenyl)-2-oxo-1,2-dihydropyridine-3-carboxamide]
aqueous solubility compared to Form N-1 [1]: lower aqueous solubility compared to Form N-1

Total Impurity [2]: 0.13%
SMILES: CCOc1ccn(-c2ccc(F)cc2)c(=O)c1C(=O)Nc1ccc(Oc2ccnc(N)c2Cl)c(F)c1 [Compound (I), N-(4-(2-Amino-3-chloropyridin-4-yloxy)-3-fluorophenyl)-4-ethoxy-1-(4-fluorophenyl)-2-oxo-1,2-dihydropyridine-3-carboxamide]

chemical and physical stability [3]: suitable chemical and physical stability
bioavailability [4, 5]: ~32%
bioavailability [4, 6]: 12%
AUC [4, 5]: 90.2 ± 5.5 µM·h
Cmax [4, 5]: 15 ± 2.7 µM
Tmax [4, 5]: 6 h
AUC [4, 6]: 33.3 ± 8.4 µM·h
Cmax [4, 6]: 6.9 ± 1.1 µM
Tmax [4, 6]: 2 h
solubility ([1]; aqueous medium, aqueous buffer, pH 7.4 and room temperature): ~0.25 µg/mL (≈ 0.487 µM)
SMILES: CCOc1ccn(-c2ccc(F)cc2)c(=O)c1C(=O)Nc1ccc(Oc2ccnc(N)c2Cl)c(F)c1 [Form N-1, N-(4-(2-Amino-3-chloropyridin-4-yloxy)-3-fluorophenyl)-4-ethoxy-1-(4-fluorophenyl)-2-oxo-1,2-dihydropyridine-3-carboxamide]
